# Assay results reported in patent publication US4837204A, “Functionalized peptidyl aminodiols and -triols” (Abbott Laboratories, priority 1988, dated 1989).
# Biological target: T1, human renal renin (Homo sapiens, UniProt P00797)
# T1 construct: human renal renin, free from acid proteolytic activity; from tissue
# T1 sequence (P00797 67-406): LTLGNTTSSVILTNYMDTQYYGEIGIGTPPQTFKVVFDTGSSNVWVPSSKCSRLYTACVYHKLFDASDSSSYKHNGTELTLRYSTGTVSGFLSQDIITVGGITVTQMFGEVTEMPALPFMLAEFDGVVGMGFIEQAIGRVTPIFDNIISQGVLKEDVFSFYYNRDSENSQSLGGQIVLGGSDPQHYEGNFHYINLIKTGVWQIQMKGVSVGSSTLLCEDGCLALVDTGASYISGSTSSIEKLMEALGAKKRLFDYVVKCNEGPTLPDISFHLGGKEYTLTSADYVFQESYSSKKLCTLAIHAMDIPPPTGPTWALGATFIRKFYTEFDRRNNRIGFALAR
# Assay: in vitro inhibition of human renal renin (angiotensin I formed measured by radioimmunoassay)
# Format: biochemical
# Conditions: human renal renin with renin substrate (human angiotensinogen), 37° C., pH 6.0
row,SMILES,IC50
1,"CC(C)(CC(=O)N[C@@H](Cc1ccccc1)C(=O)N[C@@H](Cc1c[nH]cn1)C(=O)N[C@@H](CC1CCCCC1)[C@@H](O)[C@@H](O)CN=[N+]=[N-])CC(=O)OC(C)(C)C [Example 70, (4-t-Butyloxycarbonyl-3,3-dimethyl)butanoyl-Phe-His Amide of (2S,3R,4S)-1-Azido-2,3-dihydroxy-4-amino-5-cyclohexylpentane]",1 nM
2,"CC(C)(C)OC(=O)N[C@@H](Cc1ccccc1)C(=O)N[C@@H](Cc1c[nH]cn1)C(=O)N[C@@H](CC1CCCCC1)[C@@H](O)[C@@H](O)CN=[N+]=[N-] [Example 17, Boc-Phe-His Amide of (2S,3R,4S)-1-Azido-2,3-dihydroxy-4-amino-5-cyclohexlpentane]",0.4 nM
3,"CCOC(=O)N[C@@H](Cc1ccccc1)C(=O)N[C@@H](CC(C)C)C(=O)N[C@@H](CC1CCCCC1)C(O)C(O)C(O)C(C)C (single isomer, unassigned) [Example 36B]",10 nM
4,"CCOC(=O)N[C@@H](Cc1ccccc1)C(=O)N[C@@H](CC(C)C)C(=O)N[C@@H](CC1CCCCC1)C(O)C(O)C(O)C(C)C (single isomer, unassigned) [Example 36A]",30 nM
5,"COc1ccc(C[C@H](NC(=O)C(C)C)C(=O)N[C@@H](Cc2c[nH]cn2)C(=O)N[C@@H](CC2CCCCC2)[C@@H](O)[C@@H](O)CN=[N+]=[N-])cc1 [Example 47, Isobutyryl (O-methyl)Tyr-His Amide of (2S,3R,4S)-1-Azido-2,3-dihydroxy-4-amino-5-cyclohexylpentane]",2 nM
6,"CC(C)C(=O)N[C@H](C(=O)N[C@@H](Cc1c[nH]cn1)C(=O)N[C@@H](CC1CCCCC1)[C@@H](O)[C@@H](O)CN=[N+]=[N-])[C@@H](C)OCc1ccccc1 [Example 52, Isobutyryl (O-benzyl)Thr-His Amide of (2S,3R,4S)-1-Azido-2,3-dihydroxy-4-amino-5-cyclohexylpentane]",4 nM
7,"C[C@H](NC(=O)[C@H](Cc1ccccc1)NC(=O)OC(C)(C)C)C(=O)N[C@@H](CC1CCCCC1)[C@@H](O)[C@@H](O)CN=[N+]=[N-] [Example 20, Boc-Phe-Ala-OH Amide of (2S,3R,4S)-1-Azido-2,3-dihydroxy-4-amino-5-cyclohexylpentane]",10 nM
8,"CC(C)CCC(=O)NC[C@H](O)[C@H](O)[C@H](CC1CCCCC1)NC(=O)[C@H](Cc1c[nH]cn1)NC(=O)[C@H](Cc1ccccc1)NC(=O)OC(C)(C)C [Example 14, Boc-Phe-His Amide of (2S,3R,4S)-1-(3-Methylbutylcarbonylamino)-2,3-dihydroxy-4-amino-5-cyclohexylpentane]",4 nM
9,"CCOC(=O)N[C@@H](CC(C)C)C(=O)N[C@@H](CC(C)C)C(=O)N[C@@H](CC1CCCCC1)C(O)C(O)CO (stereo partly drawn) [Example 32, Ethoxycarbonyl-Leu-Leu Amide of (2RS,3RS,4S)-Amino-5-cyclohexyl-1,2,3-trihydroxypentane]",50 nM
10,"COc1ccc(C[C@H](NC(=O)N(C)C)C(=O)N[C@@H](Cc2c[nH]cn2)C(=O)N[C@@H](CC2CCCCC2)[C@@H](O)[C@@H](O)CN=[N+]=[N-])cc1 [Example 69, Dimethylaminocarbonyl (O-methyl)Tyr-His Amide of (2S,3R,4S)-1-Azido-2,3-dihydroxy-4-amino-5-cyclohexylpentane]",10 nM
11,"COc1ccc(C[C@H](NC(=O)N2CCOCC2)C(=O)N[C@@H](Cc2c[nH]cn2)C(=O)N[C@@H](CC2CCCCC2)[C@@H](O)[C@@H](O)CN=[N+]=[N-])cc1 [Example 72, Morpholinocarbonyl (O-methyl)Tyr-His Amide of (2S,3R,4S)-1-Azido-2,3-dihydroxy-4-amino-5-cyclohexylpentane]",4 nM
12,"COc1ccc(C[C@H](NC(=O)OC(C)(C)C)C(=O)N[C@@H](Cc2c[nH]cn2)C(=O)N[C@@H](CC2CCCCC2)[C@@H](O)[C@@H](O)CN=[N+]=[N-])cc1 [Example 19, Boc-(O-methyl)Tyr-His Amide of (2S,3R,4S)-1-Azido-2,3-dihydroxy-4-amino-5-cyclohexylpentane]",0.65 nM
13,"CC(C)CS(=O)(=O)NC[C@H](O)[C@H](O)[C@H](CC1CCCCC1)NC(=O)[C@H](Cc1c[nH]cn1)NC(=O)[C@H](Cc1ccccc1)NC(=O)OC(C)(C)C [Example 16, Boc-Phe-His Amide of (2S,3R,4S)-1-(Isobutylsulfonylamino)-2,3-dihydroxy-4-amino-5-cyclohexylpentane]",10 nM
14,"CC(C)CCC(=O)NC[C@H](O)[C@H](O)[C@H](CC1CCCCC1)NC(=O)C(Cc1cc[nH]n1)NC(=O)[C@H](Cc1ccccc1)NC(=O)OC(C)(C)C (stereo partly drawn) [Example 15, Boc-Phe-d,l-3-pyrazolylalanine Amide of (2S,3R,4S)-1-(3-Methylbutylcarbonylamino)-2,3-dihydroxy-4-amino-5-cyclohexylpentane]",6 nM
15,"C[C@H](NC(=O)[C@H](Cc1ccccc1)NC(=O)OC(C)(C)C)C(=O)N[C@@H](CC1CCCCC1)[C@@H](O)[C@@H](O)CN [Example 31, Boc-Phe-Ala Amide (4-amino) of (2S,3R,4S)-1,4-Diamino-2,3-dihydroxy-5-cyclohexylpentane]",55 nM
